Test results as given in US20210309685A1, “AMINO ACID SALTS OF NICOTINIC ACID MONONUCLEOTIDE AND NICOTINAMIDE MONONUCLOETIDE AS ANTI-AGEING AGENTS” (Life Biosciences, Inc., priority 2018, published 2021).

These compounds were tested on COV434 cells (assay: NAD cell assay (NAD cycling method) in COV434 cells). Conditions: cellular NAD level, 200 uM, 4 hr, mole per mole versus parent NMN (NMN salts) or NaMN (NaMN salts), normalised to protein.
Type: cell-based
Procedure: NAD levels were assayed based on the NAD cycling method of Zhu and Rand, PLoS One (2012), herein incorporated by reference. COV434 cells were maintained in 6 well plates and treated with the indicated compounds at a concentration of 200 uM for 4 hr. Media was removed, plates were washed in cold PBS and cells were scraped down in NAD extraction buffer containing 10 mM nicotinamide, 50 mM Tris HCl, 0.1% Triton X-100. Cells were homogenised by sonication for 5 seconds, and samples were centrifuged at 7,000 g for 5 min at 4 degrees. Aliquots were taken for later protein assay, and samples were then passed through 10 kDa amicon filters at 14,000 g, 30 min at 4 degrees to remove proteins from the sample. Each sample was measured in technical triplicate, with 25 μL sample added to 100 μL ADH cycling mix (0.2 mg/ml alcohol dehydrogenase enzyme, 2% ethanol, 100 mM Tris pH 8.5). Samples were allowed to cycle for 10 min at room temperature, followed by 50 μL addition of an MTT/PMS solution (0.1 mM phenazine methosulfate, 0.8 mM 3-(4,5-Dimethylthiazol-2-yl)-2,5-diphenyltetrazolium bromide), 100 mM Tris-HCl pH 8.5). Plates were then incubated for 15 min and absorbance was measured at 570 nm. NAD concentrations were extrapolated from a standard curve, and normalised to protein concentrations determined by BCA protein assay.
The adjusted fold increase is obtained through a direct comparison on a mole per mole basis between the compared salt and its parent counterpart. In other words, the instant salts derived from NMN parent molecule will only have their NAD activity level measured against NMN based on the same amount (mole) of salt tested in the cell. Likewise those salts derived from NaMN will have their NAD cell activity measured against NaMN. For example, the fold increase of compound I-002 is based on the NAD activity observed in a direct comparison for the same amount of mole of I-002 tested in the cell and that of the NMN parent. Similarly, the fold increase of I-003 is based on the direct comparison with NaMN.

Compound | FOLD increase adjusted for MW (compared to parent molecule) [fold]
(1S,2S)-1-Carboxy-2-methylbutan-1-aminium ((2R,3S,4R,5R)-5-(3-carbamoylpyridin-1-ium-1-yl)-3,4-dihydroxytetrahydrofuran-2-yl)methyl phosphate [Compound I-062] | 1.32
(S)-1-Carboxy-3-methylbutan-1-aminium ((2R,3S,4R,5R)-5-(3-carbamoylpyridin-1-ium-1-yl)-3,4-dihydroxytetrahydrofuran-2-yl)methyl phosphate [Compound I-059] | 1.80
NC(=O)c1ccc[n+]([C@@H]2O[C@H](COP(=O)([O-])O)[C@@H](O)[C@H]2O)c1 [Compound I-014, (S)-1-Carboxy-2-(1H-indol-3-yl)ethanaminium ((2R,3S,4R,5R)-5-(3-carbamoylpyridin-1-ium-1-yl)-3,4-dihydroxytetrahydrofuran-2-yl)methyl phosphate] | 1.51
O=C([O-])c1ccc[n+]([C@@H]2O[C@H](COP(=O)(O)O)[C@@H](O)[C@H]2O)c1 [Compound I-006, (S)-1-Carboxy-2-(1H-imidazol-4-yl)ethanaminium 1-((2R,3R,4S,5R)-5-(((hydrogenphosphonato)oxy)methyl)-3,4-dihydroxytetrahydrofuran-2-yl)pyridin-1-ium-3-carboxylate] | 1.64
(R)-1-Carboxy-2-methylpropan-1-aminium 1-((2R,3R,4S,5R)-3,4-dihydroxy-5-((phosphonatooxy)methyl)tetrahydrofuran-2-yl)pyridin-1-ium-3-carboxylate [Compound I-065] | 1.54
O=C([O-])c1ccc[n+]([C@@H]2O[C@H](COP(=O)(O)O)[C@@H](O)[C@H]2O)c1 [Compound I-016, Bis((S)-1,3-Dicarboxypropan-1-aminium)-1-((2R,3R,4S,5R)-3,4-dihydroxy-5-((phosphonatooxy)methyl)tetrahydrofuran-2-yl)pyridin-1-ium-3-carboxylate] | 2.29
O=C(O)c1ccc[n+]([C@@H]2O[C@H](COP(=O)([O-])O)[C@@H](O)[C@H]2O)c1 [Compound I-020, Bis((1S,2R)-1-carboxy-2-hydroxypropan-1-aminium)-1-((2R,3R,4S,5R)-3,4-dihydroxy-5-((phosphonatooxy)methyl)tetrahydrofuran-2-yl)pyridin-1-ium-3-carboxylate] | 1.52
O=C([O-])c1ccc[n+]([C@@H]2O[C@H](COP(=O)(O)O)[C@@H](O)[C@H]2O)c1 [Compound I-017, Bis((S)-1-Carboxy-2-(1H-indol-3-yl)ethanaminium)-1-((2R,3R,4S,5R)-3,4-dihydroxy-5-((phosphonatooxy)methyl)tetrahydrofuran-2-yl)pyridin-1-ium-3-carboxylate] | 2.40
O=C([O-])c1ccc[n+]([C@@H]2O[C@H](COP(=O)(O)O)[C@@H](O)[C@H]2O)c1 [Compound I-004, Bis((S)-1-Carboxy-2-methylpropan-1-aminium)-1-((2R,3R,4S,5R)-3,4-dihydroxy-5-((phosphonatooxy)methyl)tetrahydrofuran-2-yl)pyridin-1-ium-3-carboxylate] | 1.99
O=C([O-])c1ccc[n+]([C@@H]2O[C@H](COP(=O)(O)O)[C@@H](O)[C@H]2O)c1 [Compound I-011, (S)-1-Carboxy-2-(1H-indol-3-yl)ethanaminium 1-((2R,3R,4S,5R)-5-(((hydrogenphosphonato)oxy)methyl)-3,4-dihydroxytetrahydrofuran-2-yl)pyridin-1-ium-3-carboxylate] | 2.35
(S)-1-Carboxy-3-methylbutan-1-aminium 1-((2R,3R,4S,5R)-3,4-dihydroxy-5-((phosphonatooxy)methyl)tetrahydrofuran-2-yl)pyridin-1-ium-3-carboxylate [Compound I-058] | 1.81
NC(=O)c1ccc[n+]([C@@H]2O[C@H](COP(=O)([O-])O)[C@@H](O)[C@H]2O)c1 [Compound I-002, (S)-1-Carboxy-2-methylpropan-1-aminium ((2R, 3S, 4R, 5R)-5-(3-carbamoylpyridin-1-ium-1-yl)-3,4-dihydroxytetrahydrofuran-2-yl)methyl phosphate] | 1.24
O=C([O-])c1ccc[n+]([C@@H]2O[C@H](COP(=O)(O)O)[C@@H](O)[C@H]2O)c1 [Compound I-003, (S)-4-Amino-1-carboxy-4-oxobutan-1-aminium 1-((2R3R,4S,5R)-5-(((hydrogenphosphonato)oxy)methyl)-3,4-dihydroxytetrahydrofuran-2-yl)pyridin-1-ium-3-carboxylate] | 1.89
O=C([O-])c1ccc[n+]([C@@H]2O[C@H](COP(=O)(O)O)[C@@H](O)[C@H]2O)c1 [Compound I-005, Bis((S)-4-Amino-1-carboxy-4-oxobutan-1-aminium)-1-((2R,3R,4S,5R)-3,4-dihydroxy-5-((phosphonatooxy)methyl)tetrahydrofuran-2-yl)pyridin-1-ium-3-carboxylate] | 3.05
O=C([O-])c1ccc[n+]([C@@H]2O[C@H](COP(=O)(O)O)[C@@H](O)[C@H]2O)c1 [Compound I-015, Bis((S)-1-Carboxy-4-guanidinobutan-1-aminium)-1-((2R,3R,4S,5R)-3,4-dihydroxy-5-((phosphonatooxy)methyl)tetrahydrofuran-2-yl)pyridin-1-ium-3-carboxylate] | 2.04
O=C([O-])c1ccc[n+]([C@@H]2O[C@H](COP(=O)(O)O)[C@@H](O)[C@H]2O)c1 [Compound I-008, Bis((S)-1-Carboxy-2-(1H-imidazol-4-yl)ethanaminium)-1-((2R,3R,4S,5R)-3,4-dihydroxy-5-((phosphonatooxy)methyl)tetrahydrofuran-2-yl)pyridin-1-ium-3-carboxylate] | 2.45
O=C([O-])c1ccc[n+]([C@@H]2O[C@H](COP(=O)(O)O)[C@@H](O)[C@H]2O)c1 [Compound I-001, (S)-1-Carboxy-2-methylpropan-1-aminium 1-((2R,3R,4S,5R)-5-(((hydrogenphosphonato)oxy)methyl)-3,4-dihydroxytetrahydrofuran-2-yl)pyridin-1-ium-3-carboxylate] | 1.61
O=C([O-])c1ccc[n+]([C@@H]2O[C@H](COP(=O)(O)O)[C@@H](O)[C@H]2O)c1 [Compound I-026, Bis((S)-5-amino-5-carboxypentan-1-aminium)-1-((2R,3R,4S,5R)-3,4-dihydroxy-5-((phosphonatooxy)methyl)tetrahydrofuran-2-yl)pyridin-1-ium-3-carboxylate] | 2.47
O=C([O-])c1ccc[n+]([C@@H]2O[C@H](COP(=O)(O)O)[C@@H](O)[C@H]2O)c1 [Compound I-009, (S)-1-Carboxy-4-guanidinobutan-1-aminium 1-((2R,3R,4S,5R)-5-(((hydrogenphosphonato)oxy)methyl)-3,4-dihydroxytetrahydrofuran-2-yl)pyridin-1-ium-3-carboxylate] | 2.03
NC(=O)c1ccc[n+]([C@@H]2O[C@H](COP(=O)([O-])O)[C@@H](O)[C@H]2O)c1 [Compound I-022, (S)-2-carboxypyrrolidin-1-ium ((2R,3S,4R,5R)-5-(3-carbamoylpyridin-1-ium-1-yl)-3,4-dihydroxytetrahydrofuran-2-yl)methyl phosphate] | 1.33
O=C(O)c1ccc[n+]([C@@H]2O[C@H](COP(=O)([O-])O)[C@@H](O)[C@H]2O)c1 [Compound I-027, (S)-1-carboxy-3-(methylthio)propan-1-aminium 1-((2R,3R,4S,5R)-5-(((hydrogenphosphonato)oxy)methyl)-3,4-dihydroxytetrahydrofuran-2-yl)pyridin-1-ium-3-carboxylate] | 1.49
